Measured values from PMC11490872, “Drug-resistant menin variants retain high binding affinity and interactions with MLL1” (The Journal of Biological Chemistry, 2024).
Where two headings read alike, the source gives them in different places.

Legend:
[1] = target: T1, menin^WT bound to FLSN-MLL1^4-43 (Homo sapiens, UniProt O00255); test: FP competition, displacement of FLSN-MLL1^4-43 from menin^WT; assay type: binding
T1 construct: Full-length human menin was expressed in BL21(DE3) cells; thioredoxin-His6 (cleaved yes); made in house; host or cells: E. coli BL21(DE3); probe peptide from GenScript
T1 sequence (O00255 1-610): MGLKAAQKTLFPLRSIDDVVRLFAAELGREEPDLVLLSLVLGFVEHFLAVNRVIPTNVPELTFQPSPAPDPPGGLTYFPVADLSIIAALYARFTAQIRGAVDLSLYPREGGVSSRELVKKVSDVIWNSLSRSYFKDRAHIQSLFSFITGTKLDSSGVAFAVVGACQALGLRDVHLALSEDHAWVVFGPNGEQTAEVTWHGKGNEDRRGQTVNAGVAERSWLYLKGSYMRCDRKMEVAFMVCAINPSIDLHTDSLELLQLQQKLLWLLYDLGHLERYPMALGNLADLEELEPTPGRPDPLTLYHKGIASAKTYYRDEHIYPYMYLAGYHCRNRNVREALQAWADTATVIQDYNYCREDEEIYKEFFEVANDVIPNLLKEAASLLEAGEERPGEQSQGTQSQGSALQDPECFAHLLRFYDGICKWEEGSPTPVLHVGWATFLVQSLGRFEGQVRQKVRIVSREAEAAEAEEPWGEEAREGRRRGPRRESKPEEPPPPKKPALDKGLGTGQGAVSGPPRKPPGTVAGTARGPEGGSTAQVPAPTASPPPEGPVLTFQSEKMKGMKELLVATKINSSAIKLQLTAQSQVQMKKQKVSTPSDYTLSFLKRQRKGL
Procedure: (§1) FP competition experiments used FLSN-MLL1^4-43 at 4 nM and menin at 4 nM against varying concentrations of unlabeled MLL1 peptides in FP buffer for IC50 determination. Protein-peptide complexes were incubated for 1 h before unlabeled peptide competitors were added to ensure complete binding. Unlabeled peptide competitors were incubated with the protein-peptide complexes for 3 h before measurement using the PHERAstar microplate reader ([25]). Experiments with Revumenib were run with the same steps and conditions but used 5% DMSO in the final solution. Kd and IC50 values were calculated using GraphPad Prism 10 by plotting mP values measured for each protein/MLL1 peptide or Revumenib as a function of protein/MLL1 peptide (or Revumenib) concentration ([25]). All FP binding and competition experiments were run in triplicate.

[2] = target: T2, menin^T349M bound to FLSN-MLL1^4-43 (Homo sapiens, UniProt O00255, T344M); test: FP competition, displacement of FLSN-MLL1^4-43 from menin^T349M; assay type: binding
T2 construct: The gene encoding full-length human menin was cloned into a pET32a expression vector; thioredoxin-His6 (cleaved yes); made in house; host or cells: E. coli BL21(DE3); probe peptide from GenScript
T2 sequence (O00255 1-610 T344M): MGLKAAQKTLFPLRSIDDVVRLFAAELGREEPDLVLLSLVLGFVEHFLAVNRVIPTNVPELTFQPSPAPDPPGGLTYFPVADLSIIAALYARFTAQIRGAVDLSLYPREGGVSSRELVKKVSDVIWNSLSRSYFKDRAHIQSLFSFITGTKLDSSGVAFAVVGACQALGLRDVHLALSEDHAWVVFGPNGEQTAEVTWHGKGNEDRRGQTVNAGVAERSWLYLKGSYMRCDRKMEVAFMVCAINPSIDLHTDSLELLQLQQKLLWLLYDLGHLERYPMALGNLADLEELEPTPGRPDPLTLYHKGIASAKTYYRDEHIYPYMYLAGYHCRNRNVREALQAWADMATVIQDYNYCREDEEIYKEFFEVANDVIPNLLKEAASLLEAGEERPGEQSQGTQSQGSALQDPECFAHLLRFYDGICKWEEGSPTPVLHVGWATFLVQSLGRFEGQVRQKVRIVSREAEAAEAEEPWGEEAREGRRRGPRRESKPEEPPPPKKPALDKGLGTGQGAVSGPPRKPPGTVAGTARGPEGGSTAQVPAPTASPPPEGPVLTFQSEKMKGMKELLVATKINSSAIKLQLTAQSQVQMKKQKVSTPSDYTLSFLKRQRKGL
Procedure: as §1

menin M327I = tested on: menin M327I; set-up: method as in PMID 36922589; conditions: versus wild-type menin; cited from earlier work
menin T349M = tested on: menin T349M; set-up: method as in PMID 36922589; conditions: versus wild-type menin; cited from earlier work
[3] = tested on: patients with MLL1-r and NPM1-mut acute leukemias; conditions: cited from earlier work
menin^T349M = target: T3, menin^T349M (Homo sapiens, UniProt O00255, T344M); test: ITC binding of MLL1 fragments to menin^T349M
T3 construct: The gene encoding full-length human menin was cloned into a pET32a expression vector; thioredoxin-His6 (cleaved yes); made in house; host or cells: E. coli BL21(DE3)
T3 sequence (O00255 1-610 T344M): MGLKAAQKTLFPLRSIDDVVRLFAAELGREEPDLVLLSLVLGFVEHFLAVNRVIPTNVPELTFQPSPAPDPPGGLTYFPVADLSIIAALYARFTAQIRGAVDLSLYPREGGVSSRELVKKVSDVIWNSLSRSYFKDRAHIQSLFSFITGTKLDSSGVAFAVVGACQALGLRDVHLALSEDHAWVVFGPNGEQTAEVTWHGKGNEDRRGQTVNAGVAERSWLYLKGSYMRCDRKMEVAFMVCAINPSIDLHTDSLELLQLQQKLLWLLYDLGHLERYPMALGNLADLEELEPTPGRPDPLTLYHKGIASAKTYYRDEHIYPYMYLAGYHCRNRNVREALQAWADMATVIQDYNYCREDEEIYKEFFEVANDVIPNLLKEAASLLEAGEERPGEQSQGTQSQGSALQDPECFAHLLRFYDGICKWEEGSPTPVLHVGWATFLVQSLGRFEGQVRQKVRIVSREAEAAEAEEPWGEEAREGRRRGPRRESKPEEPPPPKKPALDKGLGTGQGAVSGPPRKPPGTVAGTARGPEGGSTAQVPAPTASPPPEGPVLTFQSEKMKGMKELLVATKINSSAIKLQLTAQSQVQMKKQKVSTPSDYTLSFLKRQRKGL
Procedure: Menin and MLL1 fragments were dialyzed at 4 °C against a 50 mM sodium phosphate pH 7.5, 50 mM NaCl, 1 mM TCEP buffer, and degassed prior to measurement. The titrations were performed using the VP-ITC system (MicroCal) at 25 °C. The calorimetric cell, which contained menin (concentrations in the 5–10 μM range), was titrated with the MLL1^160 and MLL1^4-15 derived peptides (concentration range 40–100 μM) injected in 10-μL aliquots. Data was analyzed using Origin 7.0 (OriginLab) to obtain Kd, stoichiometry, entropy, and enthalpy ([2]). Experiments with WT, M327I, T349M, and G331R menin and MLL1^160 or MLL1^4-15 were run in duplicate. Experiments with G331D menin and MLL1^160 were run in duplicate while experiments with G331D and MLL1^4-15 were run in quadruplicate.

[4] = Phase 1/2, AML patients with KMT2A (MLL1) rearrangements and NPM1 mutations
[5] = FP competition with MLL1 fragments, 3 h incubation, N = 3, Fig. 3B, read-out: WT IC50
[6] = FP competition with MLL1 fragments, 3 h incubation, N = 3, Fig. 3B, read-out: T349M IC50

Molecule | IC50 ([1]; FP competition, 5% DMSO, 3 h, N = 3, Fig. 4A, read-out: IC50 (nM), menin variant WT) [nM] | IC50 ([2]; FP competition, 5% DMSO, 3 h, N = 3, Fig. 4A, read-out: IC50 (nM), menin variant T349M) [nM] | reduction of binding by M327I mutation (menin M327I) [fold] | reduction of binding by T349M mutation (menin T349M) [fold] | complete remission [3, 4] [%] | overall response rate [3, 4] [%] | rate of complete remission ([3]; phase 1/2 first-in-human trials, MLL1-r and NPM1-mut acute leukemias) | IC50 [1, 5] [nM] | IC50 [2, 6] [nM] | Kd (menin^T349M; ITC summary Fig. 1B, values marked *, n = 2, read-out: T349M Kd (nM), ITC) [nM] | Kd (menin^T349M; ITC, representative binding isotherm Fig. 1A, 25 °C, read-out: Kd) [nM]
CCN(C(=O)c1cc(F)ccc1Oc1cncnc1N1CC2(CCN(C[C@H]3CC[C@H](NS(=O)(=O)CC)CC3)CC2)C1)C(C)C [Revumenib, reference compound] | 5.7 | 125 ± 11 | 51 | 111 | ~35 | ~45 | over 30% | – | – | – | –
MLL1^46: recombinant MLL1 fragment spanning amino acids 1–46, containing MBM1 and MBM2 (MAHSARWRFPARPGTTGGGGGGGRRGLGGAPRQRVPALLLPPGPPV; The printed 'Cys2' is Cys5 in the entry (peptide S4-A5-R6); Trx-His6 tag cl) | – | – | – | – | – | – | – | 1.6 ± 0.7 | 1.9 ± 0.5 | – | –
MLL1^160: N-terminal 160 amino acids of human MLL1, Cys2 mutated to alanine, recombinant (protein, The printed 'Cys2' is the single N-terminal cysteine, Cys5 in the entry (peptide S4-A5-R6); Trx-His6 tag cleaved) MAHSARWRFPARPGTTGGGGGGGRRGLGGAPRQRVPALLLPPGPPVGGGGPGAPPSPPAVAAAAAAAGSSGAGVPGGAAAASAASSSSASSSSSSSSSASSGPALLRVGPGFDAALQVSAAIGTNLRRFRAVFGESGGGGGSGEDEQFLGFGSDEEVRVR | – | – | – | – | – | – | – | 4.1 ± 1.3 | 4.4 ± 0.8 | 2.6 ± 0.7 | 2.6 ± 0.7
